# Measurements as given in patent US20070160725A1, “Use of extracts and compounds of allium-genus plants as preservatives in the food and agri-food industries” (MOUSALA, S., L., priority 2004, published 2007).
# Experiments:
# Assay in all cases: agar diffusion, inhibition halo
# Type in all cases: cell-based
# [1] = test system: Penicillium sp, isolated from cheese
# Description: (§1) In order to evaluate the antimicrobial activity the agar diffusion technique with cellulose discs of 6 mm in diameter impregnated with the different active ingredient testing doses was used.
# (§2) Antifungal capacity was assessed against suspensions of […], harvested from pure cultures of the selected molds and against suspensions of 10^7 cells/ml for the case of yeasts. The culture medium used was the 2% Sabouraud-glucose medium (Merck).
# (§3) After incubating the culture dishes inoculated with the different organisms at the corresponding temperatures, the microbial inhibition halos that appeared were measured, and said measurement includes the 6 mm diameter of the cellulose discs.
# [2] = test system: Aspergillus niger, CECT 2700
# Description: as §1, §2, §3
# [3] = test system: Candida krusei, isolated from cheese
# Description: as §1, §2, §3
# [4] = test system: Aspergillus terreus, isolated from the environment of the cheese maturation chamber
# Description: as §1, §2, §3
# [5] = test system: Penicillium italicum CECT 2294; settings: Penicillium italicum; for zone of inhibition at 125 ppm / zone of inhibition at 250 ppm / zone of inhibition at 500 ppm / zone of inhibition at 1000 ppm: CECT2294, read-out: inhibition halo diameter
# Description: as §1, §2, §3
# [6] = test system: Geotrichum candidum CECT 1902
# Description: as §1, §2, §3
# [7] = test system: Bacillus cereus, CECT 1178
# Description: as §1
# (§4) Antibacterial capacity was assessed against suspensions of 10^6 cells/ml, prepared from pure young cultures of each one of the strains to be tested. The culture medium used was Müller-Hinton medium (Merck).
# as §3
# [8] = test system: Bacillus subtilis, isolated from paprika
# Description: as §1, §4, §3
# [9] = test system: Escherichia coli, CECT 515
# Description: as §1, §4, §3
# [10] = test system: Listeria monocytogenes, ATCC 15313
# Description: as §1, §4, §3
# [11] = test system: Trichoderma aureoviride CECT 20102
# Description: as §1, §2, §3
# [12] = test system: Mucor plumbeus, isolated from cheese; settings: 1000 ppm
# Description: as §1, §2, §3
# [13] = test system: Staphylococcus aureus, isolated from hamburgers; settings: 1000 ppm
# Description: as §1, §4, §3
# [14] = test system: Salmonella typhimurium, ATCC 13311; settings: 1000 ppm
# Description: as §1, §4, §3
# [15] = test system: Rhizopus stolonifer CECT 2344
# Description: as §1, §2, §3
# [16] = CECT2294, read-out: inhibition halo diameter
# [17] = 4000 ppm (active ingredient, dose in ppm)
# [18] = 6000 ppm (active ingredient, dose in ppm)
smiles,measurement,setting,value
"C=CC1CC=CSS1 (centres unmarked) [3-vinyl-4H-1,2-dithiin]",inhibition halo diameter,[1]; 125 ppm,0 mm
same,inhibition halo diameter,[1]; 250 ppm,6 mm
same,inhibition halo diameter,[1]; 500 ppm,7 mm
same,inhibition halo diameter,[1]; 1000 ppm,10 mm
same,inhibition halo diameter,[2]; 125 ppm,0 mm
same,inhibition halo diameter,[2]; 250 ppm,7 mm
same,inhibition halo diameter,[2]; 500 ppm,10 mm
same,inhibition halo diameter,[2]; 1000 ppm,14 mm
same,inhibition halo diameter,[3]; 125 ppm,0 mm
same,inhibition halo diameter,[3]; 250 ppm,7 mm
same,inhibition halo diameter,[3]; 500 ppm,8 mm
same,inhibition halo diameter,[3]; 1000 ppm,10 mm
same,inhibition halo diameter,[4]; 125 ppm,0 mm
same,inhibition halo diameter,[4]; 250 ppm,0 mm
same,inhibition halo diameter,[4]; 500 ppm,0 mm
same,inhibition halo diameter,[4]; 1000 ppm,0 mm
same,zone of inhibition at 125 ppm,[5],0 mm
same,zone of inhibition at 250 ppm,[5],0 mm
same,zone of inhibition at 500 ppm,[5],0 mm
same,zone of inhibition at 1000 ppm,[5],0 mm
same,inhibition halo diameter,[6]; 125 ppm,0 mm
same,inhibition halo diameter,[6]; 250 ppm,0 mm
same,inhibition halo diameter,[6]; 500 ppm,0 mm
same,inhibition halo diameter,[6]; 1000 ppm,0 mm
same,inhibition halo diameter,[7]; 125 ppm,7 mm
same,inhibition halo diameter,[7]; 250 ppm,8 mm
same,inhibition halo diameter,[7]; 500 ppm,8 mm
same,inhibition halo diameter,[7]; 1000 ppm,10 mm
same,inhibition halo diameter,[8]; 125 ppm,8 mm
same,inhibition halo diameter,[8]; 250 ppm,9 mm
same,inhibition halo diameter,[8]; 500 ppm,10 mm
same,inhibition halo diameter,[8]; 1000 ppm,12 mm
same,inhibition halo diameter,[9]; 125 ppm,0 mm
same,inhibition halo diameter,[9]; 250 ppm,0 mm
same,inhibition halo diameter,[9]; 500 ppm,0 mm
same,inhibition halo diameter,[9]; 1000 ppm,0 mm
same,inhibition halo diameter,[10]; 125 ppm,0 mm
same,inhibition halo diameter,[10]; 250 ppm,0 mm
same,inhibition halo diameter,[10]; 500 ppm,0 mm
same,inhibition halo diameter,[10]; 1000 ppm,0 mm
CCCN(CCOc1c(Cl)cc(Cl)cc1Cl)C(=O)n1ccnc1 [Prochloraz],zone of inhibition at 1000 µg/mL,[5]; [16],31 mm
same,zone of inhibition at 2000 µg/mL,[5]; [16],35 mm
same,zone of inhibition at 4000 µg/mL,[5]; [16],35 mm
same,inhibition halo diameter,[6]; 1000 ppm of commercial product,0 mm
same,inhibition halo diameter,[6]; 2000 ppm of commercial product,0 mm
same,inhibition halo diameter,[6]; 4000 ppm of commercial product,0 mm
same,inhibition halo diameter,[11]; 1000 ppm of commercial product,8 mm
same,inhibition halo diameter,[11]; 2000 ppm of commercial product,11 mm
same,inhibition halo diameter,[11]; 4000 ppm of commercial product,12 mm
"CCCSS(=O)(=O)CCC [PTSO, Propyl Propylthiosulfonate]",inhibition halo diameter,[12],13 mm
same,zone of inhibition at 1000 ppm,[5],65 mm
same,inhibition halo diameter,[13],55 mm
same,inhibition halo diameter,[14],31 mm
same,inhibition halo diameter,[8]; 1000 ppm,65 mm
c1ccc(-c2ccccc2)cc1 [Biphenyl],zone of inhibition at 4000 ppm,[5]; [16],7 mm
same,zone of inhibition at 6000 ppm,[5]; [16],8 mm
same,inhibition halo diameter,[15]; [17],0 mm
same,inhibition halo diameter,[15]; [18],0 mm
same,inhibition halo diameter,[6]; [17],0 mm
same,inhibition halo diameter,[6]; [18],0 mm
same,inhibition halo diameter,[11]; [17],0 mm
same,inhibition halo diameter,[11]; [18],0 mm
Oc1ccccc1-c1ccccc1 [o-Phenyl phenol],zone of inhibition at 4000 ppm,[5]; [16],45 mm
same,zone of inhibition at 6000 ppm,[5]; [16],45 mm
same,inhibition halo diameter,[15]; [17],14 mm
same,inhibition halo diameter,[15]; [18],15 mm
same,inhibition halo diameter,[6]; [17],45 mm
same,inhibition halo diameter,[6]; [18],47 mm
same,inhibition halo diameter,[11]; [17],40 mm
same,inhibition halo diameter,[11]; [18],42 mm
"C=CCSSC=CC[S+]([O-])CC=C (mixture of isomers) [Ajoene, (E)-(Z)-ajoene]",inhibition halo diameter,[1]; 125 ppm,12 mm
same,inhibition halo diameter,[1]; 250 ppm,27 mm
same,inhibition halo diameter,[1]; 500 ppm,40 mm
same,inhibition halo diameter,[1]; 1000 ppm,40 mm
same,inhibition halo diameter,[2]; 125 ppm,11 mm
same,inhibition halo diameter,[2]; 250 ppm,13 mm
same,inhibition halo diameter,[2]; 500 ppm,24 mm
same,inhibition halo diameter,[2]; 1000 ppm,27 mm
same,inhibition halo diameter,[3]; 125 ppm,26 mm
same,inhibition halo diameter,[3]; 250 ppm,32 mm
same,inhibition halo diameter,[3]; 500 ppm,38 mm
same,inhibition halo diameter,[3]; 1000 ppm,42 mm
same,inhibition halo diameter,[4]; 125 ppm,18 mm
same,inhibition halo diameter,[4]; 250 ppm,21 mm
same,inhibition halo diameter,[4]; 500 ppm,32 mm
same,inhibition halo diameter,[4]; 1000 ppm,40 mm
same,zone of inhibition at 125 ppm,[5],18 mm
same,zone of inhibition at 250 ppm,[5],24 mm
same,zone of inhibition at 500 ppm,[5],44 mm
same,zone of inhibition at 1000 ppm,[5],50 mm
same,inhibition halo diameter,[6]; 125 ppm,14 mm
same,inhibition halo diameter,[6]; 250 ppm,20 mm
same,inhibition halo diameter,[6]; 500 ppm,26 mm
same,inhibition halo diameter,[6]; 1000 ppm,34 mm
same,inhibition halo diameter,[7]; 125 ppm,18 mm
same,inhibition halo diameter,[7]; 250 ppm,24 mm
same,inhibition halo diameter,[7]; 500 ppm,30 mm
same,inhibition halo diameter,[7]; 1000 ppm,36 mm
same,inhibition halo diameter,[8]; 125 ppm,36 mm
same,inhibition halo diameter,[8]; 250 ppm,40 mm
same,inhibition halo diameter,[8]; 500 ppm,54 mm
same,inhibition halo diameter,[8]; 1000 ppm,62 mm
same,inhibition halo diameter,[9]; 125 ppm,7 mm
same,inhibition halo diameter,[9]; 250 ppm,9 mm
same,inhibition halo diameter,[9]; 500 ppm,11 mm
same,inhibition halo diameter,[9]; 1000 ppm,13 mm
same,inhibition halo diameter,[10]; 125 ppm,16 mm
same,inhibition halo diameter,[10]; 250 ppm,18 mm
same,inhibition halo diameter,[10]; 500 ppm,20 mm
same,inhibition halo diameter,[10]; 1000 ppm,30 mm
